Consider three compounds from patent US20070023364A1, “Tetrasilver Tetraoxide as Disinfective Agent for Cryptosporidium” (priority 2005, published 2007).

The subject of series [1] is Escherichia coli, Enterococcus faecalis and Pseudomonas aeruginosa. Put plainly: Iodine disinfection of waterborne bacterial pathogens. Format: cell-based. To be noted: 5 ppm iodine. The protocol: (§1) Test studies confirmed these observations using doses of 5 and 15 ppm of iodine against three waterborne pathogens (Escherichia coli, Enterococcus faecalis and Pseudomonas aeruginosa). […] Unfortunately, experiments using iodine even up to 100 ppm (saturation level) were ineffective in killing Cryptosporidium oocysts when exposed for 30 and 60 min. periods, respectively.

For another series, the system named is Cryptosporidium oocysts. Put plainly: Iodine exposure of Cryptosporidium oocysts (killing). To be noted: iodine up to 100 ppm (saturation level), 30 and 60 min exposure. It is filed as cell-based. The protocol: as §1
Series [2] deals with Cryptosporidium parvum oocysts. The source says:
Excystation, i.e., the release of sporozoites from the oocysts, was used to assess viability of the Cryptosporidium samples. COREXIT is 2-butoxyethanol (ethyleneglycol monobutyl ether), butyl cellosolve, butyl glycol, glycol ether eb. Other ethers similar to ethyleneglycol monobutyl ether may be used. This dispersant is composed of about 48% nonionic surfactants, including ethoxylated sorbitan mono- and trioleates (Tween 80 and Tween 85) and sorbitan monooleate (Span 80), about 35% anionic surfactants, including sodium dioctyl sulfosuccinate (AOT), and about 17% ethylene glycol monobutyl ether as a solvent EMULPHOR is an emulsifier derivative of corn oil. EMULPHOR may also be used rather than ALKAMUS. ALKAMUS is a polyethoxylated castor oil 40 mole ethoxlate. EMULPHOR from BASF, is a high molecular weight ether sulphate.

Another series concerns Cryptosporidium. Particulars: ozone-exposed Cryptosporidium, accepted by USEPA; cited from earlier work.
Series [3] deals with Cryptosporidium parvum oocysts. The source holds these as a separate data set.
Experimental: Disinfection was assessed using cell culture infectivity as the test, this procedure being more definitive than excystation. […] The 90% inactivation is a Log10 reduction of 1.0.
Infectivity in cell cultures was used in this study. Although excystation is an acceptable way to assay for live sporozoites, infectivity in cell cultures is a definitive assay generally accepted by the scientific community for assessing Cryptosporidium oocyst viability/non-viability. This assay is virtually equivalent to using living mammals to confirm infectious organisms, but it provides better quantitation of viable/infectious organisms.
In the next series the test system is aquatic species. Particulars: USEPA scientific findings; cited from earlier work.
Another series deals with avian species. To be noted: USEPA scientific findings; cited from earlier work.
In another series the test system is E. coli. Particulars: activated TTO, kill within 10 min or less; cited from earlier work.
For series [4] the following is noted: activated tetrasilver tetraoxide; cited from earlier work.
Where [5] appears, read: 3 mg/L TTO, 15 mg/L persulfate, 1% cocktail, 60 min.
Setting [6] is: 2 and 3 mg/L activated TTO, irrespective of cocktail used.
The mark [7] stands for this setting: activated 2 mg/L TTO in 1.0% cocktail, 60 min (study with 2, 5, 10 mg/L).
Setting [8] is: 2 ppm tetrasilver tetraoxide and 10 ppm potassium monopersulfate, excystation.

SMILES strings stand for the structures. Several values for one entry are separate records, joined by “and”; a condition that tells them apart may be missing. Equal values may be shown once. Read-outs that look alike come from different tables or passages of the source.

`II` [iodine]: the log10 reduction in series [1] (within 5 min) worked out at 6 log10. In [1] (within 10 min of exposure), the log10 inactivation was at most 8 log10. For the same compound, the “killing of Cryptosporidium oocysts” value in the series on Cryptosporidium oocysts is on record as “ineffective”. Further, in [2] (saturated iodine solution with 1% cocktail of COREXIT and ALKAMUS EL 620, 3 hours), the inactivation of oocysts result is “ineffective”.

With `O=[O+][O-]` [ozone], in the series on Cryptosporidium, the “Log10 reduction” value was 2.0 Log 10.

As for `[Ag+].[Ag+].[Ag+].[Ag+].[O-2].[O-2].[O-2].[O-2]` [tetrasilver tetraoxide], the “Average Infectious Oocysts × 100,000” value was 68 × 100,000 in series [3] (1 mg/L TTO), 35 × 100,000 in series [3] (2 mg/L TTO) and 13 × 100,000 in [3] (3 mg/L TTO). The “Average Log10 Reduction of Viable Oocysts (Inactivation)” value in series [3] (1 mg/L TTO) is reported as 0.23 Log10; in series [3] (2 mg/L TTO) it was 0.83 Log10; in series [3] (3 mg/L TTO) it was 1.2 Log10. The “Average Percent Oocyst Inactivation of all Variables” value in series [3] (1 mg/L TTO) is reported as 32.0%; in series [3] (2 mg/L TTO), 65.0%; in series [3] (3 mg/L TTO), 87.0%. Further, the Log10 reduction in [3] (1 mg/L TTO, 0% cocktail, 60 min) is listed as 0.6 Log10; in series [3] (2 mg/L TTO, 10 mg/L persulfate, 0% cocktail, 60 min) it was 1.8 Log10; in [3] (3 mg/L TTO, 0% cocktail, 60 min), 1.3 Log10; in [3] (setting [6]), 1.8 Log10; in series [3] (setting [7]), 1.0 Log10. The inactivation was 75% in series [3] (1 mg/L TTO, 0% cocktail, 60 min, 1.2×10^7 oocysts/50 mL) and “Lesser, but significant inactivations” in [3] (cocktail concentration raised to 2%, 60 min). Further, the “Infectious Oocysts × 100,000 using 1% Cocktail” value in series [3] (1 mg/L TTO, 5 mg/L persulfate, 1% cocktail) is listed as 100 × 100,000; in series [3] (2 mg/L TTO, 10 mg/L persulfate, 1% cocktail), 35 × 100,000; in series [3] (3 mg/L TTO, 15 mg/L persulfate, 1% cocktail), 2 × 100,000. Also, the “Infectious Oocytes × 100,000 using 0% Cocktail” value in series [3] (2 mg/L TTO, 10 mg/L persulfate, 0% cocktail) is 2 × 100,000. This compound had a Log10 oocyst reduction in [3] (setting [5]) of 1.8 Log10. Moreover, in series [3] (setting [5]), the “inactivation / kill of oocysts” value stood at 98%. In series [3] (3 mg/L TTO, cocktail present), the “effectiveness of inactivation with cocktail versus average inactivation of infectious oocysts” value is 6.5 times. Besides, the kill of oocysts in [3] (setting [6]) came to 98%. Also, in [3] (setting [7]), the “oocyst inactivation relative to stock oocyst control” value is listed as 90%. The Log10 reduction/inactivation result in series [3] (other test matrices (2, 5, 10 mg/L, with and without 1% cocktail), 60 min) was “less than a one Log10 reduction/inactivation”. In addition, the “toxicity to aquatic species” value in the series on aquatic species is on record as “toxic”. For the same compound, in the series on avian species, the “toxicity to avian species” value is “practically non-toxic”. The “concentration that kills the organisms” value with E. coli was 1-2 ppm. The mutagenicity entry in series [4] is reported as “not mutagenic”. The compound also registered an inactivation of oocysts in series [2] (1% cocktail, 3 hours, 1×10^3 oocysts in 50 ml HMEM) of 19.4%. Further, the “viable oocysts by excystation” value in series [2] (2 ppm tetrasilver tetraoxide and 10 ppm potassium monopersulfate) is recorded as 1.2+/−1.1%. The compound also yielded a kill in [2] (setting [8]) of 98.8%. Besides, the “log10 reduction in infectious Cryptosporidium parvum” value in series [2] (setting [8]) was 2 log10 and 2.0 log10.
